Earlier results in patent publication US20050031690A1, “Stabilized prostaglandin formulation” (Pharmacia Corporation, priority 2003, published 2005).

Conditions: solution state

pH region of relative stability: 3-4
Compound: CCCCC[C@H](O)/C=C/[C@H]1[C@H](O)CC(=O)[C@@H]1CCCCCCC(=O)O [prostaglandin E1]
